Where two headings read alike, the source gives them in different places. Marks after values point to notes of the source that are not given here.
How the values were obtained:
[1] = tested on: encephalomyocarditis virus (EMC); experiment: Protection of IFN against the encephalomyocarditis virus in Swiss mice, with SCL inhibiting sugars; format: in vivo; details: EMC virus i.p.
Procedure: The model used is the encephalomyocarditis virus (EMC) which kills mice in practically all cases after rather varying but relatively short incubation periods.
Male mice (average weight: […], aged 8 to 10 weeks) were injected i.p. with sodium galacturonate, glucosamine and N-acetylneuraminic acid (5 to 10% solutions containing 100 mM sugar). 24 hours afterwards, one hundred lethal doses (50%) of EMC virus are injected by the same route. After one hour, murine interferon is injected (in a dose of 20,000 units in 0.5 ml). Table 3 gives the number of animals surviving out of the total tested, the percentage and statistical significance.

TG-180 tumour cells = experiment: Antitumour action on grafted TG-180 ascitic tumour; details: for anti-tumour effect (in words): TG-180 graft in mice
Procedure: In order to test the antitumour capacity of SCL inhibiting sugars, TG-180 tumour cells originating from a tumour resistant to chemical metabolic inhibitors was grafted. In a concentration of 3×10^6 cells injected i.p. into 20 gr Swiss mice, an ascitic tumour is obtained which is detectable in 10 days and kills practically 100% of the animals in 21-25 days.
In parallel series, the various groups of animals were treated 3 days after inoculation, either with a specific sugar (glucosamine, lactose, galacturonate, N.A.N.A., neuramine-lactose) in a 5 to 10% solution, the sugar concentration being 100 mM, or with the same treatment in association with an injection of immuno-stimulant (extract of corynebacterium parvum, Merieux, France), in a dose of 200 g/mouse, or interferon, or both.
4 groups of mice per experiment were used.
They are assessed by the percentage of tumours that appeared on the 10th day, the mean survival time of the animals (MST) in. days, and the final survival (as a percentage).

T (lympho) cells = experiment: Stimulation over 24 hours of the synthesis of DNA in T (lympho) cells; format: cell-based
Procedure: XI Stimulation over 24 hours of the synthesis of DNA in T (lympho) cells

[2] = tested on: action of interferon (antiviral state against vesicular stomatitis virus) in mouse L cells; format: cell-based
[3] = single agent (+MEM, or IFN in reference group)
[4] = IL2 (100 u) +SCL + inhibitor (NANA 0.75 mmol.; oligo 41-55 3 μγ/ml)

Molecule	Final survival (%) (TG-180 tumour cells; +CP)	Final survival, Number (TG-180 tumour cells; +CP)	MST (mean survival time) (TG-180 tumour cells; +CP) [days]	Tumours on 10th day (%) (TG-180 tumour cells; +CP)	Tumours on 10th day, number (TG-180 tumour cells; +CP)	Final survival (%) (TG-180 tumour cells; +CP +IFN)	Final survival, Number (TG-180 tumour cells; +CP +IFN)	MST (mean survival time) (TG-180 tumour cells; +CP +IFN) [days]	Tumours on 10th day (%) (TG-180 tumour cells; +CP +IFN)	Tumours on 10th day, number (TG-180 tumour cells; +CP +IFN)	Final survival (%) (TG-180 tumour cells; +IFN)	Final survival, Number (TG-180 tumour cells; +IFN)	MST (mean survival time) (TG-180 tumour cells; +IFN) [days]	Tumours on 10th day (%) (TG-180 tumour cells; +IFN)	Tumours on 10th day, number (TG-180 tumour cells; +IFN)	Final survival (%) (TG-180 tumour cells; agent alone)	Final survival, Number (TG-180 tumour cells; agent alone)	MST (mean survival time) (TG-180 tumour cells; agent alone) [days]	Tumours on 10th day (%) (TG-180 tumour cells; agent alone)	Tumours on 10th day, number (TG-180 tumour cells; agent alone)	further results
N[C@H]1C(O)O[C@H](CO)[C@@H](O)[C@@H]1O (some centres unmarked) [Glucosamine, glucosamine]	(53) %	40	67 ± 8	34	26	(58) %	35	70 ± 9	28%	17	(17) %	8	39 ± 9	13	6	(6) %	1	28 ± 6	20	3	number of animals surviving out of the total number tested [1, 3]: 1/30; percentage surviving [1, 3]: 3%; number of animals surviving out of the total number tested ([1]; sugar +IFN (20,000 units)): 14/45b; percentage surviving ([1]; sugar +IFN (20,000 units)): 31%; Final survival (%) (TG-180 tumour cells; +CP, listed as glucosamine): 53%
CC(=O)N[C@H]1C(O)O[C@H](CO)[C@@H](O)[C@@H]1O (some centres unmarked) [N-acetylglucosamine]	–	–	–	–	–	–	–	–	–	–	–	–	–	–	–	–	–	–	–	–	anti-tumour effect (in words) (TG-180 tumour cells): comparable anti-tumour effects
CC(C)(N)C(=O)O [alphaaminoiso., alpha aminoisobutyric acid]	(43) %	13	66 ± 13	46	14	(47) %	14	64 ± 13	4d %	12	(13) %	4	31 ± 10	50	15	(7) %	2	31 ± 7	20	6	anti-tumour effect (in words) (TG-180 tumour cells): inhibit oncogenesis significantly
CCC(N)C(=O)O (stereo not drawn) [alphaaminobut., alpha aminobutyric acid]	(23) %	7	55 ± 14	60	18	(47) %	14	62 ± 14	23%	7	(0) %	0	25 ± 2	30	9	(0) %	0	26 ± 1	63	19	–
OC[C@H]1O[C@@H](O[C@H]2[C@H](O)[C@@H](O)C(O)O[C@@H]2CO)[C@H](O)[C@@H](O)[C@H]1O (some centres unmarked) [Lactose, lactose]	(46) %	14	82 ± 13	10	3	(64) %	29	75 ± 10	13%	6	(13) %	6	64 ± 9	20	9	(3) %	1	26 ± 6	36	11	Final survival (%) (TG-180 tumour cells; +CP, listed as lactose): 43%
NCCCC(=O)O [GABA, gamma aminobutyric acid]	(53) %	24	68 ± 11	55	25	(56) %	17	70 ± 13	23%	7	(24) %	11	43 ± 10	42	19	(13) %	4	35 ± 9	46	14	anti-tumour effect (in words) (TG-180 tumour cells): inhibit oncogenesis significantly
O=C([O-])C1OC(O)C(O)C(O)C1O.[Na+] (centres unmarked) [Na glucuronate, reference compound]	–	–	–	–	–	–	–	–	–	–	–	–	–	–	–	–	–	–	–	–	number of animals surviving out of the total number tested [1, 3]: 6/45; percentage surviving [1, 3]: 13%; number of animals surviving out of the total number tested ([1]; sugar +IFN (20,000 units)): 5/45; percentage surviving ([1]; sugar +IFN (20,000 units)): 11%; anti-tumour effect (in words) (TG-180 tumour cells): comparable anti-tumour effects
oligo 41-55: peptide SEQ ID NO: 5, position 41 to 55 in SEQ ID NO: 1 (GLGASRPRVAVRSAY; listed as Homo sapiens)	–	–	–	–	–	–	–	–	–	–	–	–	–	–	–	–	–	–	–	–	effect on the stimulation of DNA synthesis by SCL (in words) (T (lympho) cells; 24 hours): inhibited; synthesis of DNA, EXP. N° 1 (T (lympho) cells; [4]): 4,674 ± 832.52; synthesis of DNA, EXP. N° 2 (T (lympho) cells; [4]): 23,184 ± 2494
O=C[C@H](O)[C@@H](O)[C@@H](O)[C@H](O)C(=O)[O-].[Na+] [Na galacturonate, sodium galacturonate]	(20) %	3	42 ± 16	13	2	(73) %	11	81 ± 17	6%	1	(13) %	2	34 ± 15	40	6	(6) %	1	31 ± 10	20	3	number of animals surviving out of the total number tested [1, 3]: 6/75; percentage surviving [1, 3]: 8%; number of animals surviving out of the total number tested ([1]; sugar +IFN (20,000 units)): 22/90a; percentage surviving ([1]; sugar +IFN (20,000 units)): 24%
recombinant SCL: SCL expressed in mouse L cells transfected with plasmid containing the cloned gene, hexamethasone-inducible promoter (protein) SIHFSSPVFTSRSAAFSGRGAQVRLSSARPGGLGSSSLYGLGASRPRVAVRSAYGGPVGAGIREVTINQSLLAPLRLGADPFSQRVRQEESEQIKTLNNKFASFIDKVRFLEQQNKLLETKWTLLQEQKSAKSSRLPDIFEAQIAGLRGQLEAMQVDGGRLEQGLRTMQDVVEDFKNKYEDEINRRTAAENEFVVLKKDVDAAYMSKVELEAKVDALNDEINFLRTLNETELTELQSQISDTSVVLSMDNSRSLDLDGIIAEVKAQYEEMAKCSRAEAEAWYQTKFETLQAQAGKHGDDLRNTRNEISEMNRAIQRLQAEIDNIKNQRAKLEAAIAEAEERGELALKDARAKQEELEAALQRAKQDMARQLREYQELMSVKLALDIEIATYRKLLEGEESRLAGDGVGAANISVMNSTGGSSSGGGIGLTLGGTMGSNALSFSSSAGPGLLKAYSIRTASASRRSTRD	–	–	–	–	–	–	–	–	–	–	–	–	–	–	–	–	–	–	–	–	limit dilution of SCL at which the action of the interferon was completely blocked ([2]; 200 IU of interferon for 5 hours, then SCL in base 2 dilutions): 1/32; IFN titer ([2]; A: IFN + SCL induced by hexamethasone): <2 U; IFN titer ([2]; A: IFN + SCL non-induced): >5120 U; SCL titer (concentration of SCL which inhibits by 100% the antiviral state) ([2]; B: IFN 200 U + SCL): 32 U. 50%*; effect on antiviral state (in words) ([2]; interferon 5 hours, then SCL 18 hours): blocks the state of the antiviral effect
SCL: SCL excreted in the H-1 medium by PBMC over 24 hours maintained without serum (protein) SIHFSSPVFTSRSAAFSGRGAQVRLSSARPGGLGSSSLYGLGASRPRVAVRSAYGGPVGAGIREVTINQSLLAPLRLGADPFSQRVRQEESEQIKTLNNKFASFIDKVRFLEQQNKLLETKWTLLQEQKSAKSSRLPDIFEAQIAGLRGQLEAMQVDGGRLEQGLRTMQDVVEDFKNKYEDEINRRTAAENEFVVLKKDVDAAYMSKVELEAKVDALNDEINFLRTLNETELTELQSQISDTSVVLSMDNSRSLDLDGIIAEVKAQYEEMAKCSRAEAEAWYQTKFETLQAQAGKHGDDLRNTRNEISEMNRAIQRLQAEIDNIKNQRAKLEAAIAEAEERGELALKDARAKQEELEAALQRAKQDMARQLREYQELMSVKLALDIEIATYRKLLEGEESRLAGDGVGAANISVMNSTGGSSSGGGIGLTLGGTMGSNALSFSSSAGPGLLKAYSIRTASASRRSTRD	–	–	–	–	–	–	–	–	–	–	–	–	–	–	–	–	–	–	–	–	effect on synthesis of DNA (in words) (T (lympho) cells; 24 hours): stimulates the synthesis of DNA; synthesis of DNA, EXP. N° 1 (T (lympho) cells; IL2 (100 u) +SCL, 24 hours): 6,167 ± 483.66; synthesis of DNA, EXP. N° 2 (T (lympho) cells; IL2 (100 u) +SCL, 24 hours): 35,438 ± 10.370

From US6774220B1, “Compounds having lectinic properties and their biological applications” (Association pour le Développement de la Biothérapie …, priority 1995, dated 2004)
